Data on 13 compounds can be found in PubChem BioAssay (NCI).

Test systems include SF-295 CNS; MOLT-4 leukemia; M14 melanoma; OVCAR-3 ovarian; HL-60(TB) leukemia; NCI-H522 lung; HCT-15 colon; UACC-62 melanoma; A549 NSCLC; SK-MEL-28 melanoma.
Experiment in all cases: DTP human tumour cell line panel, 48 h

Values joined by “and” are separate entries in the source; they are usually repeats but may differ in a detail not shown here. Equal entries are not always repeated.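 Growth conditions: 96-well plates. Treatment: test compound, 48 hours, 5 concentrations. Analysis: linear interpolation between bracketing concentrations; unreached endpoints set to highest concentration. The concentration for 50% growth inhibition is given as GI50. TGI is the concentration that stops growth completely.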

Turning to `CCOC(=O)C(=Cc1cccnc1C)C(=O)OCC`, the TGI in the test with SF-295 CNS was 24.2 µM; in the test with MOLT-4 leukemia, 46.9 µM; in the test with M14 melanoma it was 24.2 µM; in the test on OVCAR-3 ovarian, 8.67 µM; in the test on HL-60(TB) leukemia, greater than 100 µM; in the test on NCI-H522 lung it was 11.7 µM. The TGI stood at 19.4 µM in the test on HCT-15 colon, 20.1 µM in the test with UACC-62 melanoma, 51.3 µM with A549 NSCLC and 36.5 µM with SK-MEL-28 melanoma.

Regarding `CN(C)c1ccc2nc3ccc(=[N+](C)C)cc-3sc2c1`, the GI50 is 0.329 µM and 0.934 µM with SF-295 CNS; 1.11 µM and 0.934 µM in the test with MOLT-4 leukemia; 0.337 µM and 0.407 µM with M14 melanoma; 0.307 µM and 0.3 µM with OVCAR-3 ovarian; 0.0938 µM and 0.187 µM in the test on HL-60(TB) leukemia; 0.232 µM and 0.449 µM in the test with NCI-H522 lung. Also, the GI50 with HCT-15 colon is 0.446 µM and 0.795 µM; with UACC-62 melanoma it was 0.808 µM and 2.64 µM; with A549 NSCLC it was 0.236 µM and 0.321 µM; in the test with SK-MEL-28 melanoma, 1.52 µM and 4.41 µM. The TGI in the test on SF-295 CNS is 10.3 µM and 10.2 µM; in the test on MOLT-4 leukemia, > 27.6 µM and 15.4 µM; in the test with M14 melanoma, 1.49 µM and 3.4 µM; with OVCAR-3 ovarian, 1.66 µM; with HL-60(TB) leukemia, 2.28 µM and 1.35 µM; with NCI-H522 lung, 0.906 µM and 4.5 µM. Besides, the TGI was 18.2 µM and > 100 µM with HCT-15 colon; 2.61 µM and 15.2 µM in the test on UACC-62 melanoma; 3.3 µM and 12 µM in the test on A549 NSCLC; 4.69 µM and 18.2 µM in the test with SK-MEL-28 melanoma.

Consider `COc1cc(C2C(Cl)C(=O)N2NC(=O)c2ccc(N)cc2)ccc1O` (stereo not given), for which the total growth inhibition concentration (TGI) is greater than 100 µM in the test with SF-295 CNS; 60.3 µM with MOLT-4 leukemia; greater than 100 µM in the test on M14 melanoma; 39 µM in the test with OVCAR-3 ovarian; greater than 100 µM with HL-60(TB) leukemia; 35 µM with NCI-H522 lung. The TGI in the test with HCT-15 colon, with UACC-62 melanoma, in the test with A549 NSCLC and with SK-MEL-28 melanoma was greater than 100 µM each time.

As for `Cc1cccc(C(C)C)c1NC(=O)CC1C(=O)Nc2ccccc2S1(=O)=O` (stereo not given), the concentration for total growth inhibition (TGI) with SF-295 CNS is 67.1 µM; with MOLT-4 leukemia, 10.2 µM; in the test with M14 melanoma it was greater than 64.2 µM; with OVCAR-3 ovarian, 38.5 µM; in the test with HL-60(TB) leukemia, 28.4 µM; with NCI-H522 lung it was 31.5 µM. The TGI in the test with HCT-15 colon was 19.5 µM; with UACC-62 melanoma it was greater than 51.1 µM; with A549 NSCLC, 39.3 µM; in the test with SK-MEL-28 melanoma it was greater than 56 µM.

As for `Cc1ccc(S(=O)(=O)Nc2cccc3[nH]c(C(F)(F)F)nc23)cc1`, the GI50 in the test with SF-295 CNS is 0.283 µM; with MOLT-4 leukemia, 0.605 µM; in the test on M14 melanoma, 0.355 µM; in the test on OVCAR-3 ovarian it was 0.426 µM; in the test with HL-60(TB) leukemia it was 0.39 µM; in the test with NCI-H522 lung, 0.15 µM. The GI50 in the test with HCT-15 colon was 0.408 µM; in the test on UACC-62 melanoma, 0.62 µM; in the test on A549 NSCLC it was 0.653 µM; in the test on SK-MEL-28 melanoma it was 0.654 µM. Moreover, the TGI in the test on SF-295 CNS was 1.54 µM; with MOLT-4 leukemia it was 29 µM; in the test with M14 melanoma it was 38.6 µM; in the test with OVCAR-3 ovarian, greater than 100 µM; with HL-60(TB) leukemia, 17.2 µM; in the test on NCI-H522 lung it was 0.696 µM. The TGI was greater than 100 µM with HCT-15 colon, greater than 54 µM with UACC-62 melanoma, greater than 45.8 µM with A549 NSCLC and greater than 92.8 µM in the test on SK-MEL-28 melanoma.

Take `CC[C@H](CO)Nc1nc(NCc2ccccc2)n2ncc(C(C)C)c2n1`: the GI50 in the test with SF-295 CNS was 0.812 µM; in the test on MOLT-4 leukemia it was 2.18 µM; in the test with M14 melanoma, 2 µM; with OVCAR-3 ovarian it was 1.15 µM; with HL-60(TB) leukemia, 0.409 µM; in the test with NCI-H522 lung, 1.46 µM. The GI50 in the test with HCT-15 colon is 0.872 µM; with UACC-62 melanoma, 1.37 µM; in the test on A549 NSCLC, 1.58 µM; in the test on SK-MEL-28 melanoma, 1.16 µM. Moreover, the TGI in the test with SF-295 CNS amounted to 4.74 µM; with MOLT-4 leukemia, 9.46 µM; in the test with M14 melanoma, 7.93 µM; in the test with OVCAR-3 ovarian, 4.6 µM; in the test on HL-60(TB) leukemia it was 2.68 µM; in the test on NCI-H522 lung it was 8.98 µM. The TGI with HCT-15 colon was found to be 10.5 µM; in the test on UACC-62 melanoma, 5.5 µM; in the test on A549 NSCLC it was 41.4 µM; in the test with SK-MEL-28 melanoma, 3.82 µM.

Turning to `COc1ccc(OC)c(-c2c(C#N)c(N)nc(N3CCOCC3)c2C#N)c1`, the GI50 in the test with SF-295 CNS was greater than 100 µM; in the test with MOLT-4 leukemia it was greater than 100 µM; in the test on M14 melanoma, greater than 100 µM; with OVCAR-3 ovarian, 39.3 µM; in the test on HL-60(TB) leukemia it was greater than 100 µM; with NCI-H522 lung, 46.2 µM. The GI50 in the test on HCT-15 colon is greater than 100 µM; with UACC-62 melanoma, 44.5 µM; in the test with A549 NSCLC it was greater than 100 µM; in the test with SK-MEL-28 melanoma, 82.8 µM. In addition, the total growth inhibition concentration (TGI) with SF-295 CNS, in the test with MOLT-4 leukemia, in the test on M14 melanoma, in the test on OVCAR-3 ovarian, in the test with HL-60(TB) leukemia and in the test on NCI-H522 lung was greater than 100 µM throughout. Besides, the TGI in the test with HCT-15 colon, in the test with UACC-62 melanoma, in the test on A549 NSCLC and in the test with SK-MEL-28 melanoma was greater than 100 µM throughout.

Turning to `O=c1c2ccccc2nc(-c2ccccc2)n1NC1OC(CO)C(O)C(O)C1O` (stereo not given), the TGI in the test with SF-295 CNS, with MOLT-4 leukemia, in the test on M14 melanoma, in the test on OVCAR-3 ovarian, with HL-60(TB) leukemia and in the test with NCI-H522 lung was greater than 100 µM in each case. The TGI with HCT-15 colon, with UACC-62 melanoma, with A549 NSCLC and in the test on SK-MEL-28 melanoma was greater than 100 µM throughout.

Regarding `O=C(/C=C/c1ccc([N+](=O)[O-])cc1)c1ccc2c3c(cccc13)CC2`, the GI50 with SF-295 CNS was 6.23 µM; in the test on MOLT-4 leukemia it was 1.27 µM; in the test with M14 melanoma, greater than 64.6 µM; in the test on OVCAR-3 ovarian, 3 µM; in the test on HL-60(TB) leukemia it was 4.51 µM; in the test on NCI-H522 lung, 9.77 µM. In addition, the GI50 in the test on HCT-15 colon was 5.07 µM; in the test on UACC-62 melanoma, greater than 48.4 µM; in the test with A549 NSCLC, 10.3 µM; in the test with SK-MEL-28 melanoma, 18.2 µM. Also, the concentration for total growth inhibition (TGI) with SF-295 CNS is greater than 100 µM; with MOLT-4 leukemia, 11.3 µM; in the test on M14 melanoma, greater than 100 µM; in the test with OVCAR-3 ovarian, 10.1 µM; in the test with HL-60(TB) leukemia, 29 µM; with NCI-H522 lung, 34.5 µM. Also, the TGI is greater than 100 µM in the test with HCT-15 colon, greater than 100 µM with UACC-62 melanoma, greater than 100 µM in the test on A549 NSCLC and 58.9 µM with SK-MEL-28 melanoma.

As to `Cc1c2c(nn1C)CSCc1cc(n(C)n1)CSc1cc(c3ccccc3c1)OCCCc1c(C(=O)O)n(C)c3c-2c(Cl)ccc13`, the GI50 in the test with SF-295 CNS is 2.52 µM; in the test with MOLT-4 leukemia, 0.448 µM; with M14 melanoma, 2.68 µM; with OVCAR-3 ovarian it was 2.7 µM; in the test on HL-60(TB) leukemia it was 0.0427 µM; with NCI-H522 lung, 1.9 µM. Moreover, the GI50 was 5.83 µM in the test on HCT-15 colon, 0.456 µM with UACC-62 melanoma, 4.38 µM in the test with A549 NSCLC and 3.61 µM with SK-MEL-28 melanoma. For the same compound, the TGI in the test with SF-295 CNS stood at 8.37 µM; in the test with MOLT-4 leukemia, 4.4 µM; with M14 melanoma, 11.1 µM; in the test with OVCAR-3 ovarian it was 6.82 µM; in the test on HL-60(TB) leukemia, 0.294 µM; in the test on NCI-H522 lung, 8.01 µM. In addition, the TGI in the test with HCT-15 colon worked out at 18.9 µM; in the test with UACC-62 melanoma, 2.35 µM; with A549 NSCLC, 15.6 µM; in the test on SK-MEL-28 melanoma, 12.9 µM.

As to `Cn1cc(C2=C(c3cccc(OCC(O)CO)c3)C(=O)NC2=O)c2ccccc21` (stereo not given), the GI50 in the test on SF-295 CNS, in the test on MOLT-4 leukemia, with M14 melanoma, with OVCAR-3 ovarian, with HL-60(TB) leukemia and in the test with NCI-H522 lung was greater than 25 µM throughout. The GI50 with HCT-15 colon, in the test with UACC-62 melanoma, with A549 NSCLC and with SK-MEL-28 melanoma was greater than 25 µM in each case. Moreover, the concentration for total growth inhibition (TGI) in the test on SF-295 CNS, in the test with MOLT-4 leukemia, in the test on M14 melanoma, in the test with OVCAR-3 ovarian, with HL-60(TB) leukemia and in the test with NCI-H522 lung was greater than 25 µM each time. Moreover, the concentration for total growth inhibition (TGI) in the test with HCT-15 colon, in the test on UACC-62 melanoma, in the test on A549 NSCLC and with SK-MEL-28 melanoma was greater than 25 µM in each case.

For the compound `CS[C@]12C(=O)C[C@@]3(C)[C@@H](CC[C@]3(O)C(=O)CO)[C@@H]1CCC1=CC(=O)CC[C@@]12C`, the concentration for total growth inhibition (TGI) in the test on SF-295 CNS, with MOLT-4 leukemia, in the test on M14 melanoma, in the test with OVCAR-3 ovarian, in the test on HL-60(TB) leukemia and in the test with NCI-H522 lung was greater than 100 µM in each case. Also, the total growth inhibition concentration (TGI) with HCT-15 colon, in the test on UACC-62 melanoma, in the test on A549 NSCLC and in the test on SK-MEL-28 melanoma was greater than 100 µM in each case.

For `COc1ccc(OC)c2c1C(=O)C1CC1(Br)C2=O` (stereo not given), the concentration for total growth inhibition (TGI) in the test on SF-295 CNS, with MOLT-4 leukemia, in the test on M14 melanoma, in the test with OVCAR-3 ovarian, with HL-60(TB) leukemia and in the test on NCI-H522 lung was greater than 100 µM throughout. The total growth inhibition concentration (TGI) in the test on HCT-15 colon, with UACC-62 melanoma, with A549 NSCLC and with SK-MEL-28 melanoma was greater than 100 µM throughout.

For orientation: TGI means the concentration giving total growth inhibition. The term GI50 denotes the concentration that inhibits growth by half.
